Results: PubChem BioAssay (NCI)
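GI50: concentration for 50% inhibition of growth. TGI denotes the concentration required for complete inhibition of growth.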

How the values were obtained:
Test in all cases: NCI anticancer screen, dose series, 384-well format
786-0 renal = system: 786-0 renal
ACHN renal = system: ACHN renal
EKVX NSCLC = system: EKVX NSCLC
HCC-2998 colon = system: HCC-2998 colon
M14 melanoma = system: M14 melanoma
MALME-3M melanoma = system: MALME-3M melanoma
MOLT-4 leukemia = system: MOLT-4 leukemia
NCI-H226 lung = system: NCI-H226 lung
RXF 393 renal = system: RXF 393 renal
SK-MEL-5 melanoma = system: SK-MEL-5 melanoma
SN12C renal = system: SN12C renal
SNB-19 CNS = system: SNB-19 CNS
U251 glioblastoma = system: U251 glioblastoma

CC(C)[C@](O)(c1ccc2cc(OC(F)F)c(OC(F)F)cc2c1)c1cn[nH]n1
GI50 (786-0 renal): 16.2 µM
TGI (786-0 renal): 30.3 µM
GI50 (ACHN renal): 25.5 µM
TGI (ACHN renal): 59.8 µM
GI50 (EKVX NSCLC): 13.1 µM
TGI (EKVX NSCLC): 28.8 µM
GI50 (HCC-2998 colon): 15.4 µM
TGI (HCC-2998 colon): 28.9 µM
GI50 (M14 melanoma): 17.6 µM
TGI (M14 melanoma): 31.6 µM
GI50 (MALME-3M melanoma): 16.7 µM
TGI (MALME-3M melanoma): 30.9 µM
GI50 (MOLT-4 leukemia): 11.3 µM
TGI (MOLT-4 leukemia): 23.5 µM
GI50 (NCI-H226 lung): 21 µM
TGI (NCI-H226 lung): 36 µM
GI50 (RXF 393 renal): 13.8 µM
TGI (RXF 393 renal): 28.3 µM
GI50 (SK-MEL-5 melanoma): 13.1 µM
TGI (SK-MEL-5 melanoma): 25.9 µM
GI50 (SN12C renal): 14.9 µM
TGI (SN12C renal): 28.2 µM
GI50 (SNB-19 CNS): 17.8 µM
TGI (SNB-19 CNS): 32.2 µM
GI50 (U251 glioblastoma): 16.7 µM
TGI (U251 glioblastoma): 30.5 µM
